This passage reports pest or weed control and mortality results from US20230065953A1, “NOVEL HETEROARYL-TRIAZOLE COMPOUNDS AS PESTICIDES” (Bayer Aktiengesellschaft, priority 2019, published 2023).

What all share (type): in vivo
Assay [1] relates to larvae of the banded cucumber beetle (Diabrotica balteata). Nature of the assay: Diabrotica balteata spray test. The settings on record: 168 h, 100 g/ha (=32 μg/well), wheat seeds, after 7 days, read-out: efficacy (seedling growth). In short, it runs like this: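 Wheat seeds germinated 1 day on agar were sprayed with compound in acetone/dimethylformamide with alkylarylpolyglycol ether emulsifier, diluted in emulsifier-containing water. Each unit then received 10-20 larvae, and % efficacy was scored after 7 days.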

The test system of assay [2] is adult engorged female ticks (Rhipicephalus microplus). Kind of assay: Rhipicephalus (Boophilus) microplus injection test. The settings on record: 168 h, egg deposition after 7 days, read-out: efficacy (infertile eggs); for pest or weed control at 0.004 mg: 4 μg/animal. In a few lines:
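Five adult engorged female ticks each injected into the abdomen with 1 μL of compound in DMSO, then kept in a climate chamber. Fertile egg deposition assessed after 7 days, with unclear eggs held until hatching around 42 days; efficacy 100% means all eggs infertile, 0% all fertile.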

Assay [3] relates to fall armyworm larvae (Spodoptera frugiperda). Kind of assay: Spodoptera frugiperda spray test (maize leaf sections). As to conditions: 168 h. In a few lines:
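Maize leaf sections sprayed with compound in acetone/dimethylformamide, diluted in water with 1000 ppm alkylarylpolyglycol ether emulsifier. Dried sections infested with fall armyworm larvae. Mortality (%) scored after 7 days; 100% = all caterpillars killed.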

The test system of assay [4] is Rhipicephalus microplus larvae (strain Parkhurst, resistant against synthetic pyrethroids). Nature of the assay: Rhipicephalus (Boophilus) microplus in-vitro contact test, larval cattle tick. The settings on record: 5 μg/cm^2 (=500 g/ha), after 48 hours, read-out: efficacy (larvae dead or moribund). In short, it runs like this: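 Efficacy is read at 48 h from negative geotactic behaviour after larvae are patted to the tube bottom, expressed as percentage dead or moribund. Larvae (20-50) sit in glass tubes whose walls carry an evaporated acetone film of compound (900 ppm corresponds to 5 μg/cm^2), kept at 27° C., 85% relative humidity.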

The test system of assay [5] is adult unfed cat fleas (Ctenocephalides felis). Kind of assay: Ctenocephalides felis oral test. As to conditions: 48 h. In short, it runs like this: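 About 20 adult unfed fleas fed through parafilm on cattle blood containing compound (DMSO stock diluted in blood), blood held at 37 °C and fleas at room temperature. Mortality (%) scored after 2 days.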
Assay [6] deals with adult brown dog ticks (Rhipicephalus sanguineus). Kind of assay: Rhipicephalus sanguineus in-vitro contact test with adult brown dog ticks. As to conditions: 5 μg/cm^2 (=500 g/ha), after 48 hours, read-out: efficacy (ticks dead or moribund). In a few lines:
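Acetone solution rolled onto tube walls, 2 h at 30 rpm; 900 ppm → 5 μg/cm^2. Solvent evaporated, 5-10 adults/tube, perforated lid, lying, RT. 48 h: heat plate 45-50° C ≤5 min; immotile/uncoordinated = dead/moribund. 100% = all dead/moribund.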

For assay [7], the system named is green peach aphid (Myzus persicae). Kind of assay: Myzus persicae oral test. As to conditions: 120 h. In short, it runs like this:
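Compound was dissolved in acetone, diluted with water and mixed into IPL41 insect medium with sugar under a parafilm seal. A mixed aphid population fed through the parafilm, and mortality (%) was scored after 5 days.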

For assay [8], the system named is adult flies Musca domestica strain WHO-N. Nature of the assay: Musca domestica test (MUSCDO surface treatment & contact assay). The settings on record: 24 hours after contact, read-out: efficacy (mortality); for mortality at 4 mg/m2: surface concentration 4 mg/m^2, 30 min exposure; for mortality at 20 mg/m2: surface concentration 20 mg/m^2, 30 min exposure. In short, it runs like this:
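Compound in acetone at 2 mg/ml with 2000 ppm RME pipetted onto glazed tile; after acetone evaporates, adult WHO-N flies exposed on dried surface for 30 min. Percent mortality scored 24 h after contact.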

`C[C@H](NC(=O)c1cc(C(F)(F)F)cc(C(F)(F)F)c1)c1ncnn1-c1ncc(C#N)s1` [I-2]: the pest or weed control at 32 µg/disc, 100 g/ha in assay [1] is 100%. In addition, in assay [2], the pest or weed control at 0.004 mg worked out at 100%. Besides, in assay [2] (20 μg/animal), the pest or weed control at 0.02 mg amounted to 100%. Besides, the mortality (as a rule, the percentage killed) at 100 g/ha in assay [3] was 100%. In assay [4], the pest or weed control at 5 µg/cm2 was 100%. Besides, the mortality at 100 ppm in assay [5] came to 100%. Also, the pest or weed control at 5 µg/cm2, 500 g/ha in assay [6] was determined as 100%. The molecule also came in with a mortality at 4 ppm in assay [7] of 100%. In addition, in assay [8], the mortality at 4 mg/m2 fell in the range of 90 to 100% and the mortality at 20 mg/m2 is 80 to 100%.

In the case of `Cc1nc([C@H](C)NC(=O)c2cc(C(F)(F)F)cc(C(F)(F)F)c2)n(-c2ncc(C(=O)N(C)CC3CC3)s2)n1` [I-4], the pest or weed control at 32 µg/disc, 100 g/ha in assay [1] turned out to be 100%. In addition, in assay [2], the pest or weed control at 0.004 mg amounted to 100%. In assay [3], this molecule yielded a mortality at 100 g/ha of 100%. The pest or weed control at 5 µg/cm2 in assay [4] was determined as 100%. In assay [5], this molecule displayed a mortality at 100 ppm of 100%. Besides, in assay [6], the pest or weed control at 5 µg/cm2, 500 g/ha was determined as 100%. This molecule also came in with a mortality at 4 ppm in assay [7] of 100%. Also, the mortality at 20 mg/m2 in assay [8] was 80 to 100%.

As to `Cc1nc([C@H](C)NC(=O)c2cc(C(F)(F)F)cc(C(F)(F)F)c2)n(-c2ncc(C(=O)N(C)C)s2)n1` [I-5, 2-(5-{(1S)-1-[3,5-bis(trifluoromethyl)benzamido]ethyl}-3-methyl-1H-1,2,4-triazol-1-yl)-N,N-dimethyl-1,3-thiazole-5-carboxamide], the pest or weed control at 32 µg/disc, 100 g/ha in assay [1] was 100%. The pest or weed control at 0.004 mg in assay [2] worked out at 100%. This molecule gave a mortality at 100 g/ha in assay [3] of 100%. Besides, the pest or weed control at 5 µg/cm2 in assay [4] amounted to 100%. In assay [5], the mortality at 100 ppm came to 100%. Besides, the pest or weed control at 5 µg/cm2, 500 g/ha in assay [6] worked out at 100%. This molecule showed a mortality at 4 ppm in assay [7] of 100%. Besides, the mortality at 4 mg/m2 in assay [8] lay in the range of 90 to 100%.

With `CCN(C)C(=O)c1cnc(-n2nc(C)nc2[C@H](C)NC(=O)c2cc(C(F)(F)F)cc(C(F)(F)F)c2)s1` [I-6], in assay [1], the pest or weed control at 32 µg/disc, 100 g/ha was 100%. In assay [2], the pest or weed control at 0.004 mg came to 100%. Moreover, the mortality at 100 g/ha in assay [3] was 100%. For the same molecule, in assay [4], the pest or weed control at 5 µg/cm2 was 100%. This molecule had a mortality at 100 ppm in assay [5] of 100%. In assay [6], the pest or weed control at 5 µg/cm2, 500 g/ha worked out at 100%. The molecule further returned a mortality at 4 ppm in assay [7] of 100%. Besides, in assay [8], the mortality at 4 mg/m2 lay in the range of 90 to 100% and the mortality at 20 mg/m2 fell in the range of 80 to 100%.

On to `Cc1nc([C@H](C)NC(=O)c2cc(C(F)(F)F)cc(C(F)(F)F)c2)n(-c2ncc(C(=O)N(C)CC#N)s2)n1` [I-9], for which the pest or weed control at 32 µg/disc, 100 g/ha in assay [1] is 100%. Also, in assay [2], the pest or weed control at 0.004 mg stood at 100%. In addition, the mortality at 100 g/ha in assay [3] stood at 100%. In addition, in assay [4], the pest or weed control at 5 µg/cm2 stood at 100%. For the same molecule, in assay [5], the mortality at 100 ppm is 100%. Moreover, the pest or weed control at 5 µg/cm2, 500 g/ha in assay [6] was 100%. The molecule further returned a mortality at 4 ppm in assay [7] of 100%. In assay [8], the mortality at 20 mg/m2 lay in the range of 80 to 100%.

For `Cc1nc([C@H](C)NC(=O)c2cc(C(F)(F)F)cc(C(F)(F)F)c2)n(-c2ncc(C(N)=O)s2)n1` [I-21, 2-(5-{(1S)-1-[3,5-bis(trifluoromethyl)benzamido]ethyl}-3-methyl-1H-1,2,4-triazol-1-yl)-1,3-thiazole-5-carboxamide], the pest or weed control at 32 µg/disc, 100 g/ha in assay [1] amounted to 100%. Moreover, in assay [2], the pest or weed control at 0.004 mg stood at 100%. This molecule also showed a mortality at 100 g/ha in assay [3] of 100%. Moreover, the pest or weed control at 5 µg/cm2 in assay [4] is 100%. For the same molecule, the mortality at 100 ppm in assay [5] is 100%. For the same molecule, in assay [6], the pest or weed control at 5 µg/cm2, 500 g/ha turned out to be 100%. In addition, the mortality at 4 ppm in assay [7] stood at 100%. Also, in assay [8], the mortality at 4 mg/m2 lay within 90 to 100% and the mortality at 20 mg/m2 was in the range of 80 to 100%.
